Results published in PMC10866072, “Design, synthesis, molecular modelling and biological evaluation of novel 6-amino-5-cyano-2-thiopyrimidine derivatives as potent anticancer agents against leukemia and apoptotic inducers” (Journal of Enzyme Inhibition and Medicinal Chemistry, 2024).

Assays:
CCRF-CEM = format: cell-based; conditions: Homo sapiens, one dose 10^-5 M, 48 h
HL-60(TB) = format: cell-based; conditions: Homo sapiens, one dose 10^-5 M, 48 h
K-562 = format: cell-based; conditions: Homo sapiens, K562, one dose 10^-5 M, 48 h
MOLT-4 = format: cell-based; conditions: Homo sapiens, one dose 10^-5 M, 48 h, read-out: % growth
RPMI-8226 = format: cell-based; conditions: Homo sapiens, one dose 10^-5 M, 48 h
SR = format: cell-based; conditions: Homo sapiens, one dose 10^-5 M, 48 h
A549/ATCC = format: cell-based; conditions: Homo sapiens, one dose 10^-5 M, 48 h
EKVX = format: cell-based; conditions: Homo sapiens, one dose 10^-5 M, 48 h
HOP-62 = format: cell-based; conditions: Homo sapiens, one dose 10^-5 M, 48 h
HOP-92 = format: cell-based; conditions: Homo sapiens, one dose 10^-5 M, 48 h
NCI-H226 = format: cell-based; conditions: Homo sapiens, one dose 10^-5 M, 48 h
NCI-H23 = format: cell-based; conditions: Homo sapiens, one dose 10^-5 M, 48 h, read-out: % growth
NCI-H460 = format: cell-based; conditions: Homo sapiens, one dose 10^-5 M, 48 h, read-out: % growth
NCI-H522 = format: cell-based; conditions: Homo sapiens, one dose 10^-5 M, 48 h
HCC-2998 = format: cell-based; conditions: Homo sapiens, one dose 10^-5 M, 48 h
HCT-116 = format: cell-based; conditions: Homo sapiens, one dose 10^-5 M, 48 h, read-out: % growth
HCT-15 = format: cell-based; conditions: Homo sapiens, one dose 10^-5 M, 48 h, read-out: % growth
HT29 = format: cell-based; conditions: Homo sapiens, HT-29, one dose 10^-5 M, 48 h
KM12 = format: cell-based; conditions: Homo sapiens, one dose 10^-5 M, 48 h
SW-620 = format: cell-based; conditions: Homo sapiens, one dose 10^-5 M, 48 h
SF-268 = format: cell-based; conditions: Homo sapiens, one dose 10^-5 M, 48 h, read-out: % growth
SF-295 = format: cell-based; conditions: Homo sapiens, one dose 10^-5 M, 48 h
SF-539 = format: cell-based; conditions: Homo sapiens, one dose 10^-5 M, 48 h
SNB-19 = format: cell-based; conditions: Homo sapiens, one dose 10^-5 M, 48 h, read-out: % growth
SNB-75 = format: cell-based; conditions: Homo sapiens, one dose 10^-5 M, 48 h
U251 = format: cell-based; conditions: Homo sapiens, U-251, one dose 10^-5 M, 48 h
LOX IMVI = format: cell-based; conditions: Homo sapiens, one dose 10^-5 M, 48 h, read-out: % growth
MALME-3M = format: cell-based; conditions: Homo sapiens, one dose 10^-5 M, 48 h
M14 = format: cell-based; conditions: Homo sapiens, one dose 10^-5 M, 48 h
MDA-MB-435 = format: cell-based; conditions: Homo sapiens, one dose 10^-5 M, 48 h, read-out: % growth
SK-MEL-2 = format: cell-based; conditions: Homo sapiens, one dose 10^-5 M, 48 h
SK-MEL-28 = format: cell-based; conditions: Homo sapiens, one dose 10^-5 M, 48 h
SK-MEL-5 = format: cell-based; conditions: Homo sapiens, one dose 10^-5 M, 48 h, read-out: % growth
UACC-257 = format: cell-based; conditions: Homo sapiens, one dose 10^-5 M, 48 h
UACC-62 = format: cell-based; conditions: Homo sapiens, one dose 10^-5 M, 48 h
IGROV1 = format: cell-based; conditions: Homo sapiens, IGROV-1, one dose 10^-5 M, 48 h, read-out: % growth
OVCAR-3 = format: cell-based; conditions: Homo sapiens, one dose 10^-5 M, 48 h
OVCAR-4 = format: cell-based; conditions: Homo sapiens, one dose 10^-5 M, 48 h
OVCAR-5 = format: cell-based; conditions: Homo sapiens, one dose 10^-5 M, 48 h
OVCAR-8 = format: cell-based; conditions: Homo sapiens, one dose 10^-5 M, 48 h
SK-OV-3 = format: cell-based; conditions: Homo sapiens, one dose 10^-5 M, 48 h
786-0 = format: cell-based; conditions: Homo sapiens, one dose 10^-5 M, 48 h
A498 = format: cell-based; conditions: Homo sapiens, one dose 10^-5 M, 48 h
ACHN = format: cell-based; conditions: Homo sapiens, one dose 10^-5 M, 48 h
CAKI-1 = format: cell-based; conditions: Homo sapiens, CAKI-1, 48 h, one dose 10^-5 M, 48 h
RXF 393 = format: cell-based; conditions: Homo sapiens, RXF 393, 48 h, one dose 10^-5 M, 48 h, read-out: % growth
SN12C = format: cell-based, human; conditions: Homo sapiens, one dose 10^-5 M, 48 h
TK-10 = format: cell-based; conditions: Homo sapiens, one dose 10^-5 M, 48 h
UO-31 = format: cell-based; conditions: Homo sapiens, UO-31, 48 h, one dose 10^-5 M, 48 h
PC-3 = format: cell-based; conditions: Homo sapiens, one dose 10^-5 M, 48 h
DU-145 = format: cell-based; conditions: Homo sapiens, one dose 10^-5 M, 48 h
MCF7 = format: cell-based; conditions: Homo sapiens, one dose 10^-5 M, 48 h, read-out: % growth
MDA-MB-231/ATCC = format: cell-based; conditions: Homo sapiens, one dose 10^-5 M, 48 h
HS 578T = format: cell-based; conditions: Homo sapiens; one dose 10^-5 M, 48 h; HS 578T; read-out: % growth
T-47D = format: cell-based; conditions: Homo sapiens, T47D, one dose 10^-5 M, 48 h, read-out: % growth
MDA-MB-468 = format: cell-based; conditions: Homo sapiens, one dose 10^-5 M, 48 h
[1] = system: full NCI 60 cell lines panel

For `COc1ccc(C=NNC(=N)c2c(N)nc(S)nc2-c2ccc(Cl)cc2)cc1` [Compound 4j, 4-amino-6–(4-chlorophenyl)-2-mercapto-N'-[(4-methoxyphenyl)methylene] pyrimidine-5-carboximidohydrazide], the % cell growth at 10 µM (CCRF-CEM) was 89.7%, the % growth at 10 µM (HL-60(TB)) was 111% and the % growth at 10 µM (K-562) was 95%. For the same molecule, the activity at 10 µM (MOLT-4) was 101%, the % growth at 10 µM (RPMI-8226) was 91.2% and the percent cell growth at 10 µM (SR) was 97.3%. For the same molecule, the % growth at 10 µM (A549/ATCC) was 107%, the % cell growth at 10 µM (EKVX) was 94.8% and the % growth at 10 µM (HOP-62) was 90.3%. For the same molecule, the % growth at 10 µM (HOP-92) was 107%, the % growth at 10 µM (NCI-H226) was 125% and the activity at 10 µM (NCI-H23) was 103%. It also gave an activity at 10 µM (NCI-H460) of 119%, a % growth at 10 µM (NCI-H522) of 101% and a % growth at 10 µM (HCC-2998) of 113%. For the same molecule, the activity at 10 µM (HCT-116) was 107%, the activity at 10 µM (HCT-15) was 95.6% and the % growth at 10 µM (HT29) was 105%. It also gave a % growth at 10 µM (KM12) of 100%, a % growth at 10 µM (SW-620) of 112% and an activity at 10 µM (SF-268) of 113%. The % cell growth at 10 µM (SF-295) was 97.5%, the % growth at 10 µM (SF-539) was 101% and the activity at 10 µM (SNB-19) was 90.5%. For the same molecule, the % growth at 10 µM (SNB-75) was 103%, the % growth at 10 µM (U251) was 107% and the activity at 10 µM (LOX IMVI) was 104%. It also gave a % growth at 10 µM (MALME-3M) of 105%, a % growth at 10 µM (M14) of 109% and an activity at 10 µM (MDA-MB-435) of 104%. For the same molecule, the % growth at 10 µM (SK-MEL-2) was 110%, the % cell growth at 10 µM (SK-MEL-28) was 111% and the activity at 10 µM (SK-MEL-5) was 102%. For the same molecule, the percent cell growth at 10 µM (UACC-257) was 110%, the % growth at 10 µM (UACC-62) was 92.9% and the activity at 10 µM (IGROV1) was 91.5%. It also gave a % growth at 10 µM (OVCAR-3) of 110%, a % growth at 10 µM (OVCAR-4) of 99.6% and a percent cell growth at 10 µM (OVCAR-5) of 102%. It also gave a % growth of cells at 10 µM (OVCAR-8) of 101%, a % growth at 10 µM (SK-OV-3) of 93.7% and a % growth at 10 µM (786-0) of 104%. It also gave a % growth at 10 µM (A498) of 125%, a % growth at 10 µM (ACHN) of 97.4% and a % growth at 10 µM (CAKI-1) of 91.9%. It also gave an activity at 10 µM (RXF 393) of 124%, a % growth at 10 µM (SN12C) of 93.6% and a % cell growth at 10 µM (TK-10) of 143%. It also gave a % cell growth at 10 µM (UO-31) of 77.5%, a percent cell growth at 10 µM (PC-3) of 82.6% and a % growth at 10 µM (DU-145) of 118%. It also gave an activity at 10 µM (MCF7) of 86.6%, a % growth at 10 µM (MDA-MB-231/ATCC) of 91.3% and an activity at 10 µM (HS 578T) of 107%. It also gave an activity at 10 µM (T-47D) of 86.8%, a percent cell growth at 10 µM (MDA-MB-468) of 114% and an activity at 10 µM ([1]; Homo sapiens, 60 cell, 48 h, read-out: Mean % growth) of 103%. For the same molecule, the “activity on all 60 cancer cell lines tested (in words)” value ([1]; one dose) was “weak activity”.
